Test system: MCH receptors
Experiment: MCH receptor activity class (method not given)
Conditions: class by percent of control at 10^−7 M or IC50

| SMILES | class |
| --- | --- |
| COc1ccc(C(=O)N[C@H]2CC[C@@H](Nc3ncc(C)c(N(C)C)n3)CC2)cc1 [compound 2913] | 3 (Class 3 The value of percent of control at 10^−7 M was more than 60% or the value of IC50 was more than 200 nM.) |
| Cc1cnc(N[C@H]2CC[C@@H](NC(=O)c3ccccc3Br)CC2)nc1N(C)C [compound 2914] | 3 (Class 3 The value of percent of control at 10^−7 M was more than 60% or the value of IC50 was more than 200 nM.) |
| Cc1cnc(N[C@H]2CC[C@@H](NC(=O)c3ccccc3Cl)CC2)nc1N(C)C [compound 2915] | 3 (Class 3 The value of percent of control at 10^−7 M was more than 60% or the value of IC50 was more than 200 nM.) |
| Cc1cnc(N[C@H]2CC[C@@H](NC(=O)c3ccccc3F)CC2)nc1N(C)C [compound 2916] | 3 (Class 3 The value of percent of control at 10^−7 M was more than 60% or the value of IC50 was more than 200 nM.) |
| Cc1ccccc1C(=O)N[C@H]1CC[C@@H](Nc2ncc(C)c(N(C)C)n2)CC1 [compound 2917] | 3 (Class 3 The value of percent of control at 10^−7 M was more than 60% or the value of IC50 was more than 200 nM.) |
| Cc1cnc(N[C@H]2CC[C@@H](NC(=O)c3ccccc3C(F)(F)F)CC2)nc1N(C)C [compound 2918] | 3 (Class 3 The value of percent of control at 10^−7 M was more than 60% or the value of IC50 was more than 200 nM.) |
| Cc1cnc(N[C@H]2CC[C@@H](NC(=O)c3ccc(F)c(C(F)(F)F)c3)CC2)nc1N(C)C [compound 2919] | 1 (Class 1: The value of percent of control at 10^−7 M was less than 40% or the value of IC50 was less than 50 nM.) |
| Cc1cc(C(=O)N[C@H]2CC[C@@H](Nc3ncc(C)c(N(C)C)n3)CC2)ccc1Br [compound 2920, 4-bromo-N-(cis-4-{[4-(dimethylamino)-5-methylpyrimidin-2-yl]amino}cyclohexyl)-3-methylbenzamide] | 1 (Class 1: The value of percent of control at 10^−7 M was less than 40% or the value of IC50 was less than 50 nM.) |
| CCOc1ccc(C(=O)N[C@H]2CC[C@@H](Nc3ncc(C)c(N(C)C)n3)CC2)cc1 [compound 2921, N-(cis-4-{[4-(dimethylamino)-5-methylpyrimidin-2-yl]amino}cyclohexyl)-4-ethoxybenzamide] | 2 (Class 2: The value of percent of control at 10^−7 M was from 40% to 60% or the value of IC′50 was from 50 nM to 200 nM.) |
| Cc1cc(C(=O)N[C@H]2CC[C@@H](Nc3ncc(C)c(N(C)C)n3)CC2)ccc1F [compound 2923, N-(cis-4-{[4-(dimethylamino)-5-methylpyrimidin-2-yl]amino}cyclohexyl)-4-fluoro-3-methylbenzamide] | 1 (Class 1: The value of percent of control at 10^−7 M was less than 40% or the value of IC50 was less than 50 nM.) |
| Cc1ccc(C(=O)N[C@H]2CC[C@@H](Nc3ncc(C)c(N(C)C)n3)CC2)cc1F [compound 2924, N-(cis-4-{[4-(dimethylamino)-5-methylpyrimidin-2-yl]amino}cyclohexyl)-3-fluoro-4-methylbenzamide] | 1 (Class 1: The value of percent of control at 10^−7 M was less than 40% or the value of IC50 was less than 50 nM.) |
| CCc1cccc(C(=O)N[C@H]2CC[C@@H](Nc3ncc(C)c(N(C)C)n3)CC2)c1 [compound 2925, N-(cis-4-{[4-(dimethylamino)-5-methylpyrimidin-2-yl]amino}cyclohexyl)-3-ethylbenzamide] | 1 (Class 1: The value of percent of control at 10^−7 M was less than 40% or the value of IC50 was less than 50 nM.) |
| Cc1cnc(N[C@H]2CC[C@@H](NC(=O)c3ccc4c(c3)OC(F)(F)O4)CC2)nc1N(C)C [compound 2926, N-(cis-4-{[4-(dimethylamino)-5-methylpyrimidin-2-yl]amino}cyclohexyl)-2,2-difluoro-1,3-benzodioxole-5-carboxamide] | 1 (Class 1: The value of percent of control at 10^−7 M was less than 40% or the value of IC50 was less than 50 nM.) |
| CCOc1cccc(C(=O)N[C@H]2CC[C@@H](Nc3ncc(C)c(N(C)C)n3)CC2)c1 [compound 2927, N-(cis-4-{[4-(dimethylamino)-5-methylpyrimidin-2-yl]amino}cyclohexyl)-3-ethoxybenzamide] | 2 (Class 2: The value of percent of control at 10^−7 M was from 40% to 60% or the value of IC′50 was from 50 nM to 200 nM.) |
| Cc1cnc(N[C@H]2CC[C@@H](NC(=O)c3cccc(OC(C)C)c3)CC2)nc1N(C)C [compound 2928, N-(cis-4-{[4-(dimethylamino)-5-methylpyrimidin-2-yl]amino}cyclohexyl)-3-isopropoxybenzamide] | 2 (Class 2: The value of percent of control at 10^−7 M was from 40% to 60% or the value of IC′50 was from 50 nM to 200 nM.) |
| CCOc1cc(OCC)cc(C(=O)N[C@H]2CC[C@@H](Nc3ncc(C)c(N(C)C)n3)CC2)c1 [compound 2929, N-(cis-4-{[4-(dimethylamino)-5-methylpyrimidin-2-yl]amino}cyclohexyl)-3,5-diethoxybenzamide] | 1 (Class 1: The value of percent of control at 10^−7 M was less than 40% or the value of IC50 was less than 50 nM.) |
| Cc1cnc(N[C@H]2CC[C@@H](NC(=O)c3cc(F)cc(C(F)(F)F)c3)CC2)nc1N(C)C [compound 2930, N-(cis-4-{[4-(dimethylamino)-5-methylpyrimidin-2-yl]amino}cyclohexyl)-3-fluoro-5-(trifluoromethyl)benzamide] | 1 (Class 1: The value of percent of control at 10^−7 M was less than 40% or the value of IC50 was less than 50 nM.) |
| Cc1cnc(N[C@H]2CC[C@@H](NC(=O)c3ccc(C(F)(F)F)c(F)c3)CC2)nc1N(C)C [compound 2931] | 3 (Class 3 The value of percent of control at 10^−7 M was more than 60% or the value of IC50 was more than 200 nM.) |

| SMILES | class |
| --- | --- |
| Cc1cnc(N[C@H]2CC[C@@H](NC(=O)c3ccc(F)c(Cl)c3)CC2)nc1N(C)C [compound 2932] | 3 (Class 3 The value of percent of control at 10^−7 M was more than 60% or the value of IC50 was more than 200 nM.) |
| Cc1cnc(N[C@H]2CC[C@@H](NC(=O)c3cc(Br)cc(Br)c3)CC2)nc1N(C)C [compound 2933] | 1 (Class 1: The value of percent of control at 10^−7 M was less than 40% or the value of IC50 was less than 50 nM.) |
| Cc1cc(C)cc(C(=O)N[C@H]2CC[C@@H](Nc3ncc(C)c(N(C)C)n3)CC2)c1 [compound 2934] | 1 (Class 1: The value of percent of control at 10^−7 M was less than 40% or the value of IC50 was less than 50 nM.) |
| Cc1cc(C(=O)N[C@H]2CC[C@@H](Nc3ncc(C)c(N(C)C)n3)CC2)ccc1Cl [compound 2935] | 1 (Class 1: The value of percent of control at 10^−7 M was less than 40% or the value of IC50 was less than 50 nM.) |
| COc1ccc(C(=O)N[C@H]2CC[C@@H](Nc3ncc(C)c(N(C)C)n3)CC2)cc1C(F)(F)F [compound 2936, N-(cis-4-{[4-(dimethylamino)-5-methylpyrimidin-2-yl]amino}cyclohexyl)-4-methoxy-3-(trifluoromethyl)benzamide] | 1 (Class 1: The value of percent of control at 10^−7 M was less than 40% or the value of IC50 was less than 50 nM.) |
| Cc1cccc(C(=O)N[C@H]2CC[C@@H](Nc3ncc(C)c(N(C)C)n3)CC2)c1 [compound 2937, N-(cis-4-{[4-(dimethylamino)-5-methylpyrimidin-2-yl]amino}cyclohexyl)-3-methylbenzamide] | 1 (Class 1: The value of percent of control at 10^−7 M was less than 40% or the value of IC50 was less than 50 nM.) |
| COc1cccc(C(=O)N[C@H]2CC[C@@H](Nc3ncc(C)c(N(C)C)n3)CC2)c1 [compound 2938, N-(cis-4-{[4-(dimethylamino)-5-methylpyrimidin-2-yl]amino}cyclohexyl)-3-methoxybenzamide] | 1 (Class 1: The value of percent of control at 10^−7 M was less than 40% or the value of IC50 was less than 50 nM.) |
| Cc1ccc(C(=O)N[C@H]2CC[C@@H](Nc3ncc(C)c(N(C)C)n3)CC2)cc1 [compound 2939, N-(cis-4-{[4-(dimethylamino)-5-methylpyrimidin-2-yl]amino}cyclohexyl)-4-methylbenzamide] | 1 (Class 1: The value of percent of control at 10^−7 M was less than 40% or the value of IC50 was less than 50 nM.) |
| Cc1cnc(N[C@H]2CC[C@@H](NC(=O)c3cccc(Cl)c3)CC2)nc1N(C)C [compound 2940, 3-chloro-N-(cis-4-{[4-(dimethylamino)-5-methylpyrimidin-2-yl]amino}cyclohexyl)benzamide] | 1 (Class 1: The value of percent of control at 10^−7 M was less than 40% or the value of IC50 was less than 50 nM.) |
| Cc1cnc(N[C@H]2CC[C@@H](NC(=O)CN(C)c3cccc(Cl)c3)CC2)nc1N(C)C [compound 2941] | 1 (Class 1: The value of percent of control at 10^−7 M was less than 40% or the value of IC50 was less than 50 nM.) |
| Cc1cccc(N(C)CC(=O)N[C@H]2CC[C@@H](Nc3ncc(C)c(N(C)C)n3)CC2)c1 [compound 2942] | 1 (Class 1: The value of percent of control at 10^−7 M was less than 40% or the value of IC50 was less than 50 nM.) |
| Cc1cnc(N[C@H]2CC[C@@H](NC(=O)CN(C)c3cccc(F)c3)CC2)nc1N(C)C [compound 2943] | 1 (Class 1: The value of percent of control at 10^−7 M was less than 40% or the value of IC50 was less than 50 nM.) |
| Cc1cnc(N[C@H]2CC[C@@H](NC(=O)CN(C)c3ccc(F)cc3)CC2)nc1N(C)C [compound 2944] | 1 (Class 1: The value of percent of control at 10^−7 M was less than 40% or the value of IC50 was less than 50 nM.) |
| Cc1cnc(N[C@H]2CC[C@@H](NC(=O)CN(C)c3ccc(Cl)cc3)CC2)nc1N(C)C [compound 2945] | 1 (Class 1: The value of percent of control at 10^−7 M was less than 40% or the value of IC50 was less than 50 nM.) |
| Cc1cnc(N[C@H]2CC[C@@H](NC(=O)CN(C)c3ccc(F)c(F)c3)CC2)nc1N(C)C [compound 2946] | 1 (Class 1: The value of percent of control at 10^−7 M was less than 40% or the value of IC50 was less than 50 nM.) |
| COc1cccc(N(C)CC(=O)N[C@H]2CC[C@@H](Nc3ncc(C)c(N(C)C)n3)CC2)c1 [compound 2947] | 1 (Class 1: The value of percent of control at 10^−7 M was less than 40% or the value of IC50 was less than 50 nM.) |
| COc1ccc(N(C)CC(=O)N[C@H]2CC[C@@H](Nc3ncc(C)c(N(C)C)n3)CC2)cc1 [compound 2948] | 2 (Class 2: The value of percent of control at 10^−7 M was from 40% to 60% or the value of IC′50 was from 50 nM to 200 nM.) |
